Source: US7250396B2, “Juvenile hormone compositions and methods for making same” (priority 2003, dated 2007)

Columns and labels:
[1] = tested on: day 16 larvae of the Indian Meal Moth, Plodia Interpunctella; test: Effect of methoprene at low concentrations: day 16 larvae on treated paper (behavior, webbing, survival over 19 days); type: in vivo
Protocol: An experiment was set up to determine the effectiveness of methoprene at very low concentrations on day 16 larvae of the Indian Meal Moth, Plodia Interpunctella. The concentrations tested ranged from the control at 0 wppm to 1000 wppm increasing by increments of 10×. Ten larvae per sample were added to the treated paper and exposed throughout the experiment in an incubator (Precision Model No. 815) at 80° F. (27° C.) and at a relative humidity of 60 percent. Behavior, webbing characteristics and survival rates were observed over 19 days.
The coating formulation components (excluding methoprene) and preparation procedure are described in Table 1, below.
As the Benzophenone was added to the mixture in step 7, above, the mixture was stirred in a mixer at 1500 rpm and at a temperature of 70° F. (21° C.) until the benzophenone was dissolved. As the methoprene was added to the mixture in step 8, above, the mixture was stirred in a mixer at 1500 rpm and at a temperature of 89° F. (32° C.).

[2] = tested on: 16 day Indian Meal Moth larvae; test: Exposure of 16 day larvae to methoprene for varying periods of time; type: in vivo, Plodia Interpunctella; details: 1000 wppm MP
Protocol: An experiment was set up to determine the effect of exposing 16 day Indian Meal Moth larvae to methoprene for varying periods of time. The treatment levels tested were control at 0 wppm methoprene and 1000 wppm methoprene. Five larvae (3 females, 2 males) per sample were added to paper treated with the coating composition described in Example 1. The larvae were exposed to the samples for different amount of time. The times of exposure were 0 hrs., 20 min., 1 hr., 2 hrs., 4 hrs., 8 hrs., and 24 hrs. After larvae were exposed for the set amount of time, they were placed in an incubator (Precision Model No. 815) at 80° F. (27° C.) and at a relative humidity of 60 percent, where they were allowed to pupate, become adults, and reproduce. Observations were obtained throughout a 16 day period. From when adults hatched, the number of adults were counted and averaged over the remainder of the experiment. The number of new eggs were also counted and the average number of eggs per adult was calculated. Generally, egg production decreased as treatment levels increased.

[3] = tested on: Indian Meal Moth adults; test: Adult exposure to liquid methoprene in a UV coating: egg production and viability; type: in vivo, Plodia Interpunctella; details: for Total Percent Reduction: compared to the control; for Total No. of Eggs: eggs collected over 8 days; for Total No. of Viable Eggs: eggs that hatched
Protocol: An experiment was set up to determine how egg production would be affected when Indian Meal Moth adults were exposed to liquid methoprene in a UV coating. Adults were allowed to emerge into jars lined with treated paper. The treatment levels tested were a control at 0 wppm to 1000 wppm increasing by increments of 10×. A combination treatment of liquid methoprene at 1000 wppm and 1 weight percent diatomaceous earth was also tested. The eggs produced fell to a treated surface before being collected and placed into rearing food. Observations and egg collections were taken over a […] period.
The adults came from stock insects and the number exposed per treatment was not predetermined. The total number of eggs represents all eggs per treatment collected over 8 days. The total number of viable eggs represents the number of eggs that hatched. These larvae were allowed to feed for 14 days before counting.

With `COC(C)(C)CCCC(C)C/C=C/C(C)=C/C(=O)OC(C)C` (centres unmarked) [methoprene, isopropyl-(2E, 4E)-11-methoxy-3,7,11-trimethyl-2,4-dodecadienoate] as the compound, how does the “SURVIVAL RATE” value ([1]; 1 wppm methoprene in coating, day 4) read?
Its value is 8 number of larvae surviving out of 10 larvae.

And the “SURVIVAL RATE” value ([1]; 1 wppm methoprene in coating, day 7)?
Its value is 7 number of larvae surviving out of 10 larvae.

And the “SURVIVAL RATE” value ([1]; 1 wppm methoprene in coating, day 11)?
Its value is 6 number of larvae surviving out of 10 larvae.

What about the “SURVIVAL RATE” value ([1]; 1 wppm methoprene in coating, day 13) of the same compound?
The value was 5 number of larvae surviving out of 10 larvae.

What about the “SURVIVAL RATE” value ([1]; 1 wppm methoprene in coating, day 19) of the same compound?
The value was 1 number of larvae surviving out of 10 larvae.

And the “SURVIVAL RATE” value ([1]; 10 wppm methoprene in coating, day 4)?
Its value is 8 number of larvae surviving out of 10 larvae.

And the “SURVIVAL RATE” value ([1]; 10 wppm methoprene in coating, day 7)?
Its value is 8 number of larvae surviving out of 10 larvae.

What about the “SURVIVAL RATE” value ([1]; 10 wppm methoprene in coating, day 11) of the same compound?
Its value is 7 number of larvae surviving out of 10 larvae.

And the “SURVIVAL RATE” value ([1]; 10 wppm methoprene in coating, day 13)?
The value was 7 number of larvae surviving out of 10 larvae.

And the “SURVIVAL RATE” value ([1]; 10 wppm methoprene in coating, day 19)?
The value was 2 number of larvae surviving out of 10 larvae.

What about the “SURVIVAL RATE” value ([1]; 100 wppm methoprene in coating, day 4) of the same compound?
The value was 6 number of larvae surviving out of 10 larvae.

What about the “SURVIVAL RATE” value ([1]; 100 wppm methoprene in coating, day 7) of the same compound?
The value was 4 number of larvae surviving out of 10 larvae.

And the “SURVIVAL RATE” value ([1]; 100 wppm methoprene in coating, day 11)?
Its value is 1 number of larvae surviving out of 10 larvae.

What about the “SURVIVAL RATE” value ([1]; 100 wppm methoprene in coating, day 13) of the same compound?
Its value is 1 number of larvae surviving out of 10 larvae.

And the “SURVIVAL RATE” value ([1]; 100 wppm methoprene in coating, day 19)?
Its value is 1 number of larvae surviving out of 10 larvae.

And the “SURVIVAL RATE” value ([1]; 1000 wppm methoprene in coating, day 4)?
Its value is 7 number of larvae surviving out of 10 larvae.

What about the “SURVIVAL RATE” value ([1]; 1000 wppm methoprene in coating, day 7) of the same compound?
The value was 5 number of larvae surviving out of 10 larvae.

And the “SURVIVAL RATE” value ([1]; 1000 wppm methoprene in coating, day 11)?
Its value is 3 number of larvae surviving out of 10 larvae.

What about the “SURVIVAL RATE” value ([1]; 1000 wppm methoprene in coating, day 13) of the same compound?
Its value is 3 number of larvae surviving out of 10 larvae.

And the “SURVIVAL RATE” value ([1]; 1000 wppm methoprene in coating, day 19)?
Its value is 0 number of larvae surviving out of 10 larvae.

What about the Behavior ([1]; exposed larvae, as early as day 4 of the testing period, increased nipping and cannibalism) of the same compound?
The Behavior was “showed signs of aggression”.

And the Webbing characteristics ([1]; larvae exposed to 1 wppm methoprene)?
Its Webbing characteristics is “slightly thicker throughout the dish than the control”.

What about the Webbing characteristics ([1]; larvae exposed to 10 wppm methoprene) of the same compound?
Its Webbing characteristics is “thicker, more centralized webbing”.

What about the Webbing characteristics ([1]; larvae exposed to 10 wppm methoprene (second mention, compared with the 10 wppm sample)) of the same compound?
The Webbing characteristics was “dense and more centralized than the 10 wppm methoprene sample”.

And the Webbing characteristics ([1]; larvae exposed to 1000 wppm methoprene)?
The Webbing characteristics was “completely centralized mound of webbing”.

And the “survival rate compared to the control sample” value ([1]; treatment levels as low as 1 wppm)?
Its value is “significant decrease in survival rate”.

What about the “Average No. of Adults/Day” value ([2]; time exposed 20 min.) of the same compound?
The value was 10.

And the “Average No. of Eggs/Adult” value ([2]; time exposed 20 min.)?
Its value is 34.

And the “Average No. of Adults/Day” value ([2]; time exposed 1 hr.)?
The value was 12.

What about the “Average No. of Eggs/Adult” value ([2]; time exposed 1 hr.) of the same compound?
The value was 30.

What about the “Average No. of Adults/Day” value ([2]; time exposed 2 hrs.) of the same compound?
Its value is 12.

And the “Average No. of Eggs/Adult” value ([2]; time exposed 2 hrs.)?
Its value is 19.

What about the “Average No. of Adults/Day” value ([2]; time exposed 4 hrs.) of the same compound?
Its value is 10.

And the “Average No. of Eggs/Adult” value ([2]; time exposed 4 hrs.)?
Its value is 25.

And the “Average No. of Adults/Day” value ([2]; time exposed 8 hrs.)?
Its value is 9.

What about the “Average No. of Eggs/Adult” value ([2]; time exposed 8 hrs.) of the same compound?
The value was 17.

What about the “Average No. of Adults/Day” value ([2]; time exposed 24 hrs.) of the same compound?
Its value is 7.

What about the “Average No. of Eggs/Adult” value ([2]; time exposed 24 hrs.) of the same compound?
Its value is 9.

What about the “Percent Viable Eggs” value ([3]; 10 wppm MP) of the same compound?
The value was 7.5%.

What about the “Total Percent Reduction” value ([3]; 10 wppm MP) of the same compound?
Its value is 85.6%.

And the “Total No. of Eggs” value ([3]; 10 wppm MP)?
Its value is 1430.

And the “Total No. of Viable Eggs” value ([3]; 10 wppm MP)?
Its value is 108.

And the “Percent Viable Eggs” value ([3]; 100 wppm MP)?
Its value is 18%.

And the “Total Percent Reduction” value ([3]; 100 wppm MP)?
Its value is 65.4%.

What about the “Total No. of Eggs” value ([3]; 100 wppm MP) of the same compound?
Its value is 1285.

And the “Total No. of Viable Eggs” value ([3]; 100 wppm MP)?
The value was 234.

What about the “Percent Viable Eggs” value ([3]; 1000 wppm MP) of the same compound?
The value was 36%.

And the “Total Percent Reduction” value ([3]; 1000 wppm MP)?
Its value is 30.8%.

What about the “Total No. of Eggs” value ([3]; 1000 wppm MP) of the same compound?
Its value is 1190.

What about the “Total No. of Viable Eggs” value ([3]; 1000 wppm MP) of the same compound?
Its value is 432.
